Here are results for two compounds from patent US10624968B2, “Compounds for treating cancer” (Bicycle Therapeutics Limited, priority 2017, dated 2020).

A short description of series [1]: Mortality, morbidity and body weight in HT1080 xenograft study (Example 13). Type of series: in vivo, mouse. The following applies: 10 mg/kg biw. Here is the method: All the procedures related to animal handling, care and the treatment in the study were performed following the guidance of the Association for Assessment and Accreditation of Laboratory Animal Care (AAALAC). At the time of routine monitoring, the animals were daily checked for any effects of tumor growth and treatments on normal behavior such as mobility, food and water consumption (by looking only), body weight gain/loss (body weights were measured every day), eye/hair matting and any other abnormal effect as stated in the protocol. Death and observed clinical signs were recorded on the basis of the numbers of animals within each subset.
Body weight was monitored regularly as an indirect measure of toxicity.

Series [2] has as its system HCC1806. Briefly: cells. The following applies: HCC1806, 72 hours. An excerpt: (§1) Details of the initial cell plating procedure are described in Table 3.
(§2) Data Details for Tables 5 and 6. Inhibition %=(Max−Sample value)/(Max−Min)*100.
(§3) The IC50 curves were generated by 4 Parameter Logistic Model—Sigmoidal Dose-Response Model as follows: Y=Bottom+(Top−Bottom)/(1+10^((log EC50-X)*HillSlope)).

For series [3], the system named is SNU-16. Kind of series: cells. The following applies: SNU-16, 72 hours.
Excerpt: as §1, §2, §3

The test system of series [4] is NCI-H1975. Briefly: cells. The following applies: NCI-H1975, 72 hours.
Excerpt: as §1, §2, §3

The test system of series [5] is HT1080. Kind of series: cells. The following applies: HT1080, 72 hours.
Excerpt: as §1, §2, §3

The subject of series [6] is HCT15. Kind of series: cells. The following applies: HCT15, 72 hours.
Excerpt: as §1, §2, §3

The subject of series [7] is EBC-1. Kind of series: cells. The following applies: EBC-1, 72 hours.
Excerpt: as §1, §2, §3

The test system of series [8] is HT29. Kind of series: cells. The following applies: HT29, 72 hours.
Excerpt: as §1, §2, §3

Series [9] deals with MDA-MB-231. Briefly: cells. The following applies: MDA-MB-231, 72 hours.
Excerpt: as §1, §2, §3

Series [10] has as its system PC-3. Kind of series: cells. The following applies: PC-3, 72 hours.
Excerpt: as §1, §2, §3

In series [11] the test system is NCI-H292. Kind of series: cells. The following applies: NCI-H292, 72 hours.
Excerpt: as §1, §2, §3

The test system of series [12] is MOLP-8. Briefly: cells. The following applies: MOLP-8, 72 hours.
Excerpt: as §1, §2, §3

Series [13] concerns HT1080 cells. Kind of series: Cytotoxicity in HT1080 cells in presence and absence of 1 mM bacitracin (ATPlite, 24 hour exposure). Here is the method: HT1080 cells (ATCC, via LGC, BIC918) Maintained in EMEM media (Sigma M2279)+10% FBS (Sigma Code F7524)+4 mM L-Glu (Invitrogen Cat 25030-024)
I-1a and Toxins with Bacitracin—24 or 72 Hour Exposure in 96 Well Plates
DB seeded cells in normal media, 75 μL in 96 well clear plates, ˜24 hours previous.
HT1080—7.5 k cells/well: 50% confluent upon dosing.
Dilute in media 1:42.85=5 μL DMSO dilute+209 μL media=>use 15 μL per well
This gives a 5 μM top concentration for BDCs in assay
Add 10 µL of media±bacitracin (2 plates of each)−leave for 1 hr
(§4) Bacitracin=1 mM final concentration. This requires a 10 mM concentration with no DMSO.
Add 15 μL treatment per well as in Table 19, below.
Seal plates with gas permeable membrane and incubate at 37° C.
Washout HT1080 plates with 2×150 μL PBS at 24 h and add 100 μL fresh media
At t=72 h, equilibrate ATPlite reagent to room temperature. Add 10 ml buffer to each vial of lyophilized substrate. Add 100 μL reagent per well. Seal with PCR seal and cover to protect from light. Shake for 20 mins before reading luminescence

For series [14], the system named is L540 cells. Kind of series: Cytotoxicity in L540 cells in presence and absence of 1 mM bacitracin (ATPlite, 72 hour exposure). It counts as cell-based. The protocol:
L540 cells (DSMZ # ACC72, BIC5121), maintained in RPMI-1640 medium (Sigma # R8758)+20% heat-inactivated serum
L540—20 k cells/well: 40% confluent upon dosing.
as §4
Add 100 μL reagent per well. […] Shake for 20 mins before reading luminescence
On the technique in general: ATP-based viability assays read luminescence as a measure of living cells.

Like-named read-outs stand apart in the source and are kept apart here. Starred links: 1 amine or outer side, 2 acyl side, 3 side chain; linkers in the order of their positions; H or OH if unused. Positions of bridges follow the written chain, without caps; N, C: chain ends. Non-standard residues stand in square brackets, D forms with d. Residues, ends and D or L forms follow the SMILES beside them. ξ: configuration not given here. *: point of attachment. X3 = COc1cc2cc(c1Cl)N(C)C(=O)C[C@H](OC(=O)[C@H](C)N(C)C(=O)CCSCc1ccc(N*)cc1)[C@]1(C)O[C@H]1[C@H](C)[C@@H]1C[C@@](O)(NC(=O)O1)[C@H](OC)/C=C/C=C(\C)C2; TBMB = c1c(C[*:1])cc(C[*:3])cc1C[*:2]; Glutaryl = O=C(CCCC(=O)[*:2])[*:1]; ξ1Nal = NC(Cc1cccc2ccccc12)C(=O)O; Cit = NC(=O)NCCC[C@H](N)C(=O)O; ξY = NC(Cc1ccc(O)cc1)C(=O)O; ξTle = CC(C)(C)C(N)C(=O)O; ξF = NC(Cc1ccccc1)C(=O)O; ξE = NC(CCC(=O)O)C(=O)O; ξD = NC(CC(=O)O)C(=O)O; ξN = NC(=O)CC(N)C(=O)O; ξC = NC(CS)C(=O)O; βAla = NCCC(=O)O; ξA = CC(N)C(=O)O; Sar = CNCC(=O)O

For `COc1cc2cc(c1Cl)N(C)C(=O)C[C@H](OC(=O)[C@H](C)N(C)C(=O)CCSCc1ccc(NC(=O)[C@H](CCCNC(N)=O)NC(=O)[C@@H](NC(=O)CCCC(=O)NCCC(=O)N(C)CC(=O)N(C)CC(=O)N(C)CC(=O)N(C)CC(=O)N(C)CC(=O)N(C)CC(=O)N(C)CC(=O)N(C)CC(=O)N(C)CC(=O)N(C)CC(=O)NC(C)C(=O)NC3CSCc4cc5cc(c4)CSCC(NC(=O)C(C)NC(=O)C(Cc4cccc6ccccc46)NC(=O)C(CCC(=O)O)NC(=O)C(CC(N)=O)NC(=O)C(C)NC3=O)C(=O)NC(C)C(=O)NC(CC(=O)O)C(=O)NC(Cc3ccccc3)C(=O)NC(Cc3ccc(O)cc3)C(=O)NC(CC(=O)O)C(=O)NC(C(C)(C)C)C(=O)NC(C(N)=O)CSC5)C(C)C)cc1)[C@]1(C)O[C@H]1[C@H](C)[C@@H]1C[C@@](O)(NC(=O)O1)[C@H](OC)/C=C/C=C(\C)C2` (stereo partly drawn) [Compound I-7] ({X3-Cit-Val-Glutaryl-βAla}-[Sar][Sar][Sar][Sar][Sar][Sar][Sar][Sar][Sar][Sar][ξA][ξC][ξA][ξN][ξE][ξ1Nal][ξA][ξC][ξA][ξD][ξF][ξY][ξD][ξTle][ξC]-NH2; linker 12-18-25 via TBMB), the “mice died during the dosing period” value in [1] is 2/3.

Turning to `COc1cc2cc(c1Cl)N(C)C(=O)C[C@H](OC(=O)[C@H](C)N(C)C(=O)CCSSC)[C@]1(C)O[C@H]1[C@H](C)[C@@H]1C[C@@](O)(NC(=O)O1)[C@H](OC)/C=C/C=C(\C)C2` [DM1-Sme], the Top inhibition% in [2] is 88%; in [3], 98%; in series [4], 64%; in [5], 99%; in [6] it was 94%; in series [7], 65%. For the same compound, the Top inhibition% in [8] is 82%; in series [9] it was 49%; in [10], 54%; in series [11], 77%; in [12], 92%. The IC50 (in general, the concentration at which inhibition is half-maximal) in [2] (read-out: Re IC50) came out at 0.62 nM; in series [3] (read-out: Re IC50), 0.77 nM; in series [4] (read-out: Re IC50), 1.52 nM; in series [5] (read-out: Re IC50), 0.22 nM; in series [6] (read-out: Re IC50), 0.94 nM; in [7] (read-out: Re IC50), 0.32 nM. The IC50 in series [8] (read-out: Re IC50) worked out at 0.68 nM; in [9] (read-out: Re IC50) it was 0.79 nM; in [10] (read-out: Re IC50), 0.18 nM; in series [11] (read-out: Re IC50), 0.27 nM; in series [12] (read-out: Re IC50), 0.21 nM; in series [13] (read-out: IC50 with 1 mM bacitracin, 24 hour exposure, + 1 mM bacitracin (PDI inhibitor)), 0.41 nM. The IC50 in series [13] (read-out: Standard IC50, 24 hour exposure (high MT1 expression), no block) is 0.07 nM; in [14] (72 hour exposure (low/no MT1 expression), no block, read-out: Standard IC50) it was 9.6 nM; in series [14] (read-out: IC50 with 1 mM bacitracin, 72 hour exposure, + 1 mM bacitracin), 12 nM. The “Fold shift with bacitracin” value in [13] (24 hour exposure, 1 mM bacitracin vs none) was 5.9.
